Assay results as given in patent US20260374739A1, “SMALL MOLECULAR WEIGHT CHEMICAL COMPOUND TO ANTAGONIZE EPH-EPHRIN TETRAMERIZATION AND INHIBIT BIDIRECTIONAL SIGNALING” (THE BOARD OF REGENTS OF THE UNIVERSITY OF TEXAS SYSTEM, priority 2022, published 2026).
Where “and” joins values, the source holds several entries; their conditions need not be identical. Equal entries are not always repeated. Entries after “also recorded” stand apart in the source; their conditions may differ. Where two headings read alike, the source gives them in different places. Marks after values point to notes of the source that are not given here. Each block holds one compound with its values, some of them ahead of it.

Legend:
EphrinB2-EphB2 [1] = biological target: T1, EphrinB2-EphB2 (Homo sapiens, UniProt P29323); test: Octet tetramerization inhibition, immobilized human EphrinB2 binding to 50 nM soluble human EphB2
T1 construct: soluble human EphB1-His, EphB2-His, and EphB4-His ectodomains; commercially available human EphrinB1-Fc (EB1), EphrinB2-Fc (EB2), and EphrinB3-Fc (EB3) ectodomain proteins; purchased
T1 sequence (P29323 19-543 limits assumed): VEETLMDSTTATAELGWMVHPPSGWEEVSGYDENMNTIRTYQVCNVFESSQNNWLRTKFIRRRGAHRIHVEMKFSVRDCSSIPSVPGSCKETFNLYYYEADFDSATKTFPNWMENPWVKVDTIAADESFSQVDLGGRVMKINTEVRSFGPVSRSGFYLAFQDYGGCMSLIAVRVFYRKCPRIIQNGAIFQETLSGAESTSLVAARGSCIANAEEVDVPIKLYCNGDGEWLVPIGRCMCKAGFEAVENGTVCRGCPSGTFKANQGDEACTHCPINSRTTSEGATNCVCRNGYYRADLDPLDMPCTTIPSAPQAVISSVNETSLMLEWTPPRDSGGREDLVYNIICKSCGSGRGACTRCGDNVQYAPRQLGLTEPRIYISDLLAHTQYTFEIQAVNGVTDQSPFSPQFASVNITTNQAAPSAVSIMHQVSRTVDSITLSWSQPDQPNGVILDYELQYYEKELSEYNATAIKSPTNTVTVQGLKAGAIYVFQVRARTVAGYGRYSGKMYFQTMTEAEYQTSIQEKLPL

EphrinB2-EphB2 [2] = biological target: T1, EphrinB2-EphB2; test: Octet 80 sec association/500 sec dissociation, immobilized human EphrinB2-Fc binding to soluble human EphB2-His; conditions: for EphB2 Inhibition Percent, Inhibition of Association ONLY: at 3.2 μM and 80 seconds; for EphB2 Inhibition Percent, Inhibition of Association ONLY / EphB2 Inhibition Percent, Inhibition of Association-Dissociation: immobilized human EphrinB2, 25 nM soluble human EphB2; for EphB2 Inhibition Percent, Inhibition of Association-Dissociation: at 3.2 μM and 580 seconds; for inhibition: highest dose, typically 3.2 μM
Summary of the method: (§1)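 EphrinB2-Fc captured on AHC biosensors, then soluble His-tagged EphB ectodomain (25 nM for % inhibition runs) associated 80 s and dissociated 500 s in PBS, 0.05% Tween-20, 1% DMSO ± compound. Compounds tested at 0.1–3.2 μM with a 10 μM max standard; IC50 from AUC of full traces or at 75 s and 135 s.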

EphrinB2-EphB4 = biological target: T2, EphrinB2-EphB4 (Homo sapiens, UniProt P54760); test: Octet 80 sec association/500 sec dissociation, immobilized human EphrinB2-Fc binding to soluble human EphB4-His; conditions: for inhibition at 3.2 µM: 25 nM EphB4, 3.2 μM compound, A20-I as max control, 0* = less than 0, no inhibition; for EphB4 Inhibition Percent, Inhibition of Association ONLY: at 3.2 μM and 80 seconds; for EphB4 Inhibition Percent, Inhibition of Association ONLY / EphB4 Inhibition Percent, Inhibition of Association-Dissociation: immobilized human EphrinB2, 25 nM soluble human EphB4; for EphB4 Inhibition Percent, Inhibition of Association-Dissociation: at 3.2 μM and 580 seconds; for inhibition: highest dose, typically 3.2 μM
T2 construct: soluble human EphB1-His, EphB2-His, and EphB4-His ectodomains; commercially available human EphrinB1-Fc (EB1), EphrinB2-Fc (EB2), and EphrinB3-Fc (EB3) ectodomain proteins; purchased
T2 sequence (P54760 16-539 limits assumed): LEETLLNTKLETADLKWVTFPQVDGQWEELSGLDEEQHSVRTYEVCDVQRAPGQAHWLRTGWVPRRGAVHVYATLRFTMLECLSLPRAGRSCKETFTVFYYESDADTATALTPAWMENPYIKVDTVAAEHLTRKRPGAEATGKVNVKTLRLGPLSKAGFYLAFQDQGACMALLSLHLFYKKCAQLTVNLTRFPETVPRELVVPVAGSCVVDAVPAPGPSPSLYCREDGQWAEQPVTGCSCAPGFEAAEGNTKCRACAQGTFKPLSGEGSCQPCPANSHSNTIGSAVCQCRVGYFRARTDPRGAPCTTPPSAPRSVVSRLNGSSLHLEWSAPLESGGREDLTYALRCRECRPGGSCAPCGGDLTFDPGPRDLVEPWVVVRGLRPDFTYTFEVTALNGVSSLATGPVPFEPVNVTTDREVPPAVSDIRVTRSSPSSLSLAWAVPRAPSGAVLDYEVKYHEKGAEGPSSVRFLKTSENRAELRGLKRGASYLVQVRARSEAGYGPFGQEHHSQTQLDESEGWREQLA
Summary of the method: as §1

[3] = Absolute AUC/IC50, Table A, EphrinB2-EphB2
[4] = Absolute Association IC50 (300 sec), Table A, EphrinB2-EphB2
[5] = Absolute Dissociation IC50 (450 sec), Table A, EphrinB2-EphB2
[6] = Relative Association IC50 (300 sec), Table A, EphrinB2-EphB2
[7] = Relative Dissociation IC50 (450 sec), Table A, EphrinB2-EphB2
[8] = tetramerization inhibitor IC50 (relative), association step, surmountable tetramer
[9] = Relative AUC/IC50, Table A, EphrinB2-EphB2, compound 7: association only
[10] = EphB2, 25 nM EphB2, 3.2 μM compound, A20-I as max control, 0* = less than 0, no inhibition, listed as A19-NO2 (B)

SMILES: Oc1c(Br)cc(CN2CCN(Cc3ccc(Br)cc3)CC2)c2cccnc12 [Compound 44, 7-bromo-5-((4-(4-bromobenzyl)piperazin-1-yl)methyl)quinolin-8-ol]
- tetramerization inhibitor activity (EphrinB2-EphB2 [1]): appears promising
- IC50 (EphrinB2-EphB2 [1]; [3]): > 3200 nM
- IC50 (EphrinB2-EphB2 [1]; [4]): > 3200 nM
- IC50 (EphrinB2-EphB2 [1]; [5]): 380 nM
- IC50 (EphrinB2-EphB2 [1]; [6]): 280 nM
- IC50 (EphrinB2-EphB2 [1]; [7]): 300 nM
- inhibition at 3.2 µM (EphrinB2-EphB2 [2]; EphB2, 25 nM EphB2, 3.2 μM compound, A20-I as max control, 0* = less than 0, no inhibition, read-out: % Inhibition: Association + Dissociation (160 sec)): 77.1%
- inhibition at 3.2 µM (EphrinB2-EphB2 [2]; EphB2, 25 nM EphB2, 3.2 μM compound, A20-I as max control, 0* = less than 0, no inhibition, read-out: % Inhibition: Association ONLY (80 sec)): 62.1%
- inhibition at 3.2 µM (EphrinB2-EphB4; EphB4, read-out: % Inhibition: Association + Dissociation (160 sec)): 28.3%
- inhibition at 3.2 µM (EphrinB2-EphB4; EphB4, read-out: % Inhibition: Association ONLY (80 sec)): 4.9%

SMILES: Oc1ccc(CN2CCN(c3ccc(Br)cc3)CC2)c2cccnc12 [Compound 26, 5-((4-(4-bromophenyl)piperazin-1-yl)methyl)quinolin-8-ol]
- IC50 (EphrinB2-EphB2 [1]; [8]): 1200 nM
- EphB2 Inhibition Percent, Inhibition of Association ONLY (EphrinB2-EphB2 [2]): 35.9%
- EphB2 Inhibition Percent, Inhibition of Association-Dissociation (EphrinB2-EphB2 [2]): 60.1%
- selectivity among EphrinB2-EphB1/B2/B4 (EphrinB2-EphB4; 3.2 μM, listed as QPB4): ability to selectively inhibit EphrinB2-EphB2 and EphrinB2-EphB1 interactions, while sparing the EphrinB2-EphB4 interaction; also recorded: less action towards EphB4 but high specificity for EphB1 and EphB2
- EphB4 Inhibition Percent, Inhibition of Association ONLY (EphrinB2-EphB4): 0*%
- EphB4 Inhibition Percent, Inhibition of Association-Dissociation (EphrinB2-EphB4): 0*%

SMILES: Oc1c(I)cc(CN2CCOCC2)c2cccnc12 [Compound 8, 4-((8-hydroxy-7-iodoquinolin-1-ium-5-yl)methyl)morpholin-4-ium chloride]
- IC50 (EphrinB2-EphB2 [1]; [3]): 1320 nM and 1000 nM and 1480 nM
- IC50 (EphrinB2-EphB2 [1]; [4]): 1380 nM and 1350 nM and > 3200 nM
- IC50 (EphrinB2-EphB2 [1]; [5]): 980 nM and 1260 nM and 850 nM
- IC50 (EphrinB2-EphB2 [1]; [9]): 630 nM
- IC50 (EphrinB2-EphB2 [1]; [6]): 630 nM and 850 nM
- IC50 (EphrinB2-EphB2 [1]; [7]): 660 nM and 930 nM
- EphB2 Inhibition Percent, Inhibition of Association-Dissociation (EphrinB2-EphB2 [2]): 73.6%

- inhibition of unsurmountable tetramer (EphrinB2-EphB2 [1]): 100%
- IC50 (EphrinB2-EphB2 [1]; [3]): 360 nM and 530 nM and 590 nM and 510 nM
- IC50 (EphrinB2-EphB2 [1]; [4]): 380 nM and 580 nM and 680 nM and 780 nM
- IC50 (EphrinB2-EphB2 [1]; [5]): 350 nM and 400 nM and 580 nM and 630 nM
- IC50 (EphrinB2-EphB2 [1]; [9]): 220 nM and 370 nM and 230 nM and 320 nM
- IC50 (EphrinB2-EphB2 [1]; [6]): 300 nM and 330 nM (2×) and 400 nM
- IC50 (EphrinB2-EphB2 [1]; [7]): 300 nM and 420 nM and 370 nM
- IC50 (EphrinB2-EphB2 [1]; [8]): ~300 nM
- IC50 (EphrinB2-EphB2 [1]; tetramerization inhibitor IC50, surmountable tetramer): ~300 nM
- IC50 (EphrinB2-EphB2 [2]; EphB2, Association (75″), read-out: Absolute IC50): 320 nM
- IC50 (EphrinB2-EphB2 [2]; EphB2, Association (75″), read-out: Relative IC50): 280 nM
- IC50 (EphrinB2-EphB2 [2]; EphB2, Association (AUC), read-out: Absolute IC50): 360 nM
- IC50 (EphrinB2-EphB2 [2]; EphB2, Association (AUC), read-out: Relative IC50): 280 nM
- IC50 (EphrinB2-EphB2 [2]; EphB2, Dissociation (135″), read-out: Absolute IC50): 250 nM
- IC50 (EphrinB2-EphB2 [2]; EphB2, Dissociation (135″), read-out: Relative IC50): 230 nM
- IC50 (EphrinB2-EphB2 [2]; EphB2, Full AUC, read-out: Absolute IC50): 200 nM
- IC50 (EphrinB2-EphB2 [2]; EphB2, Full AUC, read-out: Relative IC50): 180 nM
- inhibition (EphrinB2-EphB2 [2]; EphB2, read-out: Association (% Inhibited (AUC))): 62.5%
- inhibition (EphrinB2-EphB2 [2]; EphB2, read-out: Association + Dissociation (% Inhibited (AUC))): 78.7%
- % Inhibited (AUC), Association + Dissociation (EphrinB2-EphB4; EphB4, 0-160 sec, 50 nM, 10 μM compound, Table 4): 29.3%
- % Inhibited (AUC), Association (EphrinB2-EphB4; EphB4, 50 nM, 10 μM compound, Table 4): 16.6%
- IC50 (EphrinB2-EphB4; EphB4, Association (75″), read-out: Absolute IC50): > 3200 nM
- IC50 (EphrinB2-EphB4; EphB4, Association (75″), read-out: Relative IC50): 80 nM
- IC50 (EphrinB2-EphB4; EphB4, Association (AUC), read-out: Absolute IC50): > 3200 nM
- IC50 (EphrinB2-EphB4; EphB4, Association (AUC), read-out: Relative IC50): 120 nM
- IC50 (EphrinB2-EphB4; EphB4, Dissociation (135″), read-out: Absolute IC50): 780 nM
- IC50 (EphrinB2-EphB4; EphB4, Dissociation (135″), read-out: Relative IC50): 200 nM
- IC50 (EphrinB2-EphB4; EphB4, Full AUC, read-out: Absolute IC50): 320 nM
- IC50 (EphrinB2-EphB4; EphB4, Full AUC, read-out: Relative IC50): 260 nM
- inhibition (EphrinB2-EphB4; EphB4, read-out: Association (% Inhibited (AUC))): 12.5%
- inhibition (EphrinB2-EphB4; EphB4, read-out: Association + Dissociation (% Inhibited (AUC))): 36.4%
SMILES: Oc1c(Br)cc(CN2CCN(c3ccc(Br)cc3)CC2)c2cccnc12 [Compound 28, 7-bromo-5-((4-(4-bromophenyl)piperazin-1-yl)methyl)quinolin-8-ol]
- disruption of unsurmountable tetramer (EphrinB2-EphB2 [1]; 0.8-3.2 μM): complete loss of this structure at 3.2 μM

SMILES: O=[N+]([O-])c1cc(CN2CCOCC2)c2cccnc2c1O [Compound 10, 4-((8-hydroxy-7-nitroquinolin-1-ium-5-yl)methyl)morpholin-4-ium chloride]
- IC50 (EphrinB2-EphB2 [1]; [3]): > 1600 nM
- IC50 (EphrinB2-EphB2 [1]; [4]): > 1600 nM
- IC50 (EphrinB2-EphB2 [1]; [5]): > 1600 nM
- IC50 (EphrinB2-EphB2 [1]; [9]): > 1600 nM
- IC50 (EphrinB2-EphB2 [1]; [6]): > 1600 nM
- IC50 (EphrinB2-EphB2 [1]; [7]): > 1600 nM
- % Inhibition: Association + Dissociation (160 sec) (EphrinB2-EphB2 [2]; [10]): 24.2%
- % Inhibition: Association ONLY (80 sec) (EphrinB2-EphB2 [2]; [10]): 11.6%
- EphB2 Inhibition Percent, Inhibition of Association ONLY (EphrinB2-EphB2 [2]): 9.2% and 11.6% and 16.5%
- EphB2 Inhibition Percent, Inhibition of Association-Dissociation (EphrinB2-EphB2 [2]): 24.5% and 24.2% and 21.0%
- EphB4 Inhibition Percent, Inhibition of Association ONLY (EphrinB2-EphB4): 0.1% and 0% and 4.1%
- EphB4 Inhibition Percent, Inhibition of Association-Dissociation (EphrinB2-EphB4): 9.0% and 0% and 5.9%
